# Publication PMC12586182 (Frontiers in Oncology, 2025)
# pIC50: −log10 of the molar value. Like-named read-outs stand apart in the source and are kept apart here.
# What was measured:
# AurA = target: T1, AurA (Homo sapiens, UniProt O14965); assay: Kinase panel profiling at 1 µmol/L (mobility shift assay, Carna); assay type: biochemical; conditions: 1 µmol/L of BTK inhibitor
# T1 construct: purchased Carna Biosciences
# T1 sequence (O14965 1-403): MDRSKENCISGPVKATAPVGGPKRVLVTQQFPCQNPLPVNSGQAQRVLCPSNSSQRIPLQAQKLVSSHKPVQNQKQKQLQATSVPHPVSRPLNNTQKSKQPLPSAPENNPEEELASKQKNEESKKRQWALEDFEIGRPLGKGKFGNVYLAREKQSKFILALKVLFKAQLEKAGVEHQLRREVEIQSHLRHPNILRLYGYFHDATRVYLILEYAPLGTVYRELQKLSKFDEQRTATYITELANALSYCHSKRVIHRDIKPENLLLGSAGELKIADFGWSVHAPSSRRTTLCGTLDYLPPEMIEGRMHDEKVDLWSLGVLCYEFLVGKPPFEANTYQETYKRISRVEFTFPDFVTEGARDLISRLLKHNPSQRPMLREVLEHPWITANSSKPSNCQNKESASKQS
# CaMK1α = target: T2, CaMK1α (Homo sapiens, UniProt Q14012); assay: as above; assay type: biochemical; conditions: 1 µmol/L of BTK inhibitor
# T2 construct: purchased Carna Biosciences
# T2 sequence (Q14012 whole entry): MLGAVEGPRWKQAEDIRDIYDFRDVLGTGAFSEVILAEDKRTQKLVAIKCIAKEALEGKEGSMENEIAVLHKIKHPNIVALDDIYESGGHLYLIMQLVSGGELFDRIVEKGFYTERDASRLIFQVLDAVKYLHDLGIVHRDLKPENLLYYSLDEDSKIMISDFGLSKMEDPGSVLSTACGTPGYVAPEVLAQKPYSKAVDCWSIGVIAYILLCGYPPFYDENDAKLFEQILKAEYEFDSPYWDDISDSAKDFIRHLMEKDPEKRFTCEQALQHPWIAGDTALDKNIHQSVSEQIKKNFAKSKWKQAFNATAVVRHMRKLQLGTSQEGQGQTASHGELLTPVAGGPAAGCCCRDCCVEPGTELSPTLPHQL
# p70S6Kβ = target: T3, p70S6Kβ (Homo sapiens, UniProt Q9UBS0); assay: as above; assay type: biochemical; conditions: 1 µmol/L of BTK inhibitor
# T3 construct: purchased Carna Biosciences
# T3 sequence (Q9UBS0 whole entry): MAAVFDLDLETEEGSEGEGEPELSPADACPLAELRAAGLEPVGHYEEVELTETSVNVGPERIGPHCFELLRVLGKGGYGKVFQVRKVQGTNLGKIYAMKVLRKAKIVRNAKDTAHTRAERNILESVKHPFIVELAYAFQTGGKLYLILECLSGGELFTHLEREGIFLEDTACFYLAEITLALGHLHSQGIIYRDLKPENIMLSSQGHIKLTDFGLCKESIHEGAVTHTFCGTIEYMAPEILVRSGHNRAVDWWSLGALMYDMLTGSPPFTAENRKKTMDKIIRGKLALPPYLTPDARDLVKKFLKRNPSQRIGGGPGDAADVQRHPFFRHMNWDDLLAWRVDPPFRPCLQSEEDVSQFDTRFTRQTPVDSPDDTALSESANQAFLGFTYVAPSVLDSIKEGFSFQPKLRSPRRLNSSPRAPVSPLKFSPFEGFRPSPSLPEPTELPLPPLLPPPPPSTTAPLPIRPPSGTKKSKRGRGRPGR
# REC-1 = assay: Cell viability assay (ATPlite); assay type: cell-based, human; conditions: REC-1 cell line; for pIC50: 72 hours incubation
# Experimental: (§1) Intracellular ATP content was used as an indirect readout of cell number using the ATPlite 1Step bioluminescence assay (Revvity, Groningen, the Netherlands). Cells were seeded in 384-well plates at an optimized density to ensure unrestricted growth and maximal signal at the end of the experiment. After 24 hours of incubation, the starting cell number was determined by adding ATPlite to each well of a control plate and recording luminescence on an Envision multimode reader (Revvity, Waltham, MA, USA) ([4]). […] Vehicle-treated controls were included to determine maximal cell proliferation. […] After incubation for an additional 72 hours, the ATP content was measured in each well using ATPlite. The luminescent signal in inhibitor-treated wells was normalized to vehicle-treated control wells to determine the percentage viability at each concentration. Cell doublings were determined by relating the cell number of vehicle-treated controls to the starting cell number for each cell line. […] The quality of the complete assay was determined by a parallel test with doxorubicin on two cell lines. IC50 values were calculated by fitting a four-parameter logistic model to the percentage viability values using IDBS XLfit5 (IDBS, Guildford, United Kingdom). All curves were visually inspected and submitted to an F-test as implemented in IDBS XLfit5. […] When this dose range was too high in a certain cell line to allow for a reliable determination of the IC50, a new dilution series was prepared using a diluted stock solution and was used to retest the compound on the cell line.
# SU-DHL-6 = assay: Cell viability assay (ATPlite); assay type: cell-based, human; conditions: SU-DHL-6 cell line; for pIC50: 72 hours incubation
# Experimental: as §1
# PKD2 = target: T4, PKD2 (Homo sapiens, UniProt Q9BZL6); assay: Kinase panel profiling at 1 µmol/L (mobility shift assay, Carna); assay type: biochemical; conditions: 1 µmol/L of BTK inhibitor
# T4 construct: purchased Carna Biosciences
# T4 sequence (Q9BZL6 1-878): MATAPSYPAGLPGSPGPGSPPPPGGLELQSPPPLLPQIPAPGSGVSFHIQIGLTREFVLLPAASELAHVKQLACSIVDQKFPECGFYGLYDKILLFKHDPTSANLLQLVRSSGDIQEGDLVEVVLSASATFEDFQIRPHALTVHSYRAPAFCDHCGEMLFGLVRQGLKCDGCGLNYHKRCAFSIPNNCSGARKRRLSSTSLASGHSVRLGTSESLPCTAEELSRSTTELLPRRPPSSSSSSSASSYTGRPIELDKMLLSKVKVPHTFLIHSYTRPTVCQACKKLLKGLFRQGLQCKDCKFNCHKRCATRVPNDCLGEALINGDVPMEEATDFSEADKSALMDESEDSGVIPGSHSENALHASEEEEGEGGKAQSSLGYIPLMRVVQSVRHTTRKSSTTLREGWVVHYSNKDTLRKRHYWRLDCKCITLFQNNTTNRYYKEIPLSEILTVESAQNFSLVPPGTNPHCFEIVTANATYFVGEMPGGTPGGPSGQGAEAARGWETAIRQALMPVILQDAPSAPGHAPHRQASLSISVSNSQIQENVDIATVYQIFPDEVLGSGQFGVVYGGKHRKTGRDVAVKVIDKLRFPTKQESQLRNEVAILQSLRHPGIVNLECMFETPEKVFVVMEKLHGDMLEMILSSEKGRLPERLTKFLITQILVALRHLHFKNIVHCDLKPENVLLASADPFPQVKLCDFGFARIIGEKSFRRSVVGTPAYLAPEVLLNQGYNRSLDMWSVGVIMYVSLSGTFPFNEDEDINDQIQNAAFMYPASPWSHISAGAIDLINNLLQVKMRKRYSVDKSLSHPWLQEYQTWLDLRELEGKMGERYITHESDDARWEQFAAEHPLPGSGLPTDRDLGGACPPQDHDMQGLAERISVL
# ROCK1 = target: T5, ROCK1 (Homo sapiens, UniProt Q13464); assay: as above; assay type: biochemical; conditions: 1 µmol/L of BTK inhibitor
# T5 construct: purchased Carna Biosciences
# T5 sequence (Q13464 whole entry): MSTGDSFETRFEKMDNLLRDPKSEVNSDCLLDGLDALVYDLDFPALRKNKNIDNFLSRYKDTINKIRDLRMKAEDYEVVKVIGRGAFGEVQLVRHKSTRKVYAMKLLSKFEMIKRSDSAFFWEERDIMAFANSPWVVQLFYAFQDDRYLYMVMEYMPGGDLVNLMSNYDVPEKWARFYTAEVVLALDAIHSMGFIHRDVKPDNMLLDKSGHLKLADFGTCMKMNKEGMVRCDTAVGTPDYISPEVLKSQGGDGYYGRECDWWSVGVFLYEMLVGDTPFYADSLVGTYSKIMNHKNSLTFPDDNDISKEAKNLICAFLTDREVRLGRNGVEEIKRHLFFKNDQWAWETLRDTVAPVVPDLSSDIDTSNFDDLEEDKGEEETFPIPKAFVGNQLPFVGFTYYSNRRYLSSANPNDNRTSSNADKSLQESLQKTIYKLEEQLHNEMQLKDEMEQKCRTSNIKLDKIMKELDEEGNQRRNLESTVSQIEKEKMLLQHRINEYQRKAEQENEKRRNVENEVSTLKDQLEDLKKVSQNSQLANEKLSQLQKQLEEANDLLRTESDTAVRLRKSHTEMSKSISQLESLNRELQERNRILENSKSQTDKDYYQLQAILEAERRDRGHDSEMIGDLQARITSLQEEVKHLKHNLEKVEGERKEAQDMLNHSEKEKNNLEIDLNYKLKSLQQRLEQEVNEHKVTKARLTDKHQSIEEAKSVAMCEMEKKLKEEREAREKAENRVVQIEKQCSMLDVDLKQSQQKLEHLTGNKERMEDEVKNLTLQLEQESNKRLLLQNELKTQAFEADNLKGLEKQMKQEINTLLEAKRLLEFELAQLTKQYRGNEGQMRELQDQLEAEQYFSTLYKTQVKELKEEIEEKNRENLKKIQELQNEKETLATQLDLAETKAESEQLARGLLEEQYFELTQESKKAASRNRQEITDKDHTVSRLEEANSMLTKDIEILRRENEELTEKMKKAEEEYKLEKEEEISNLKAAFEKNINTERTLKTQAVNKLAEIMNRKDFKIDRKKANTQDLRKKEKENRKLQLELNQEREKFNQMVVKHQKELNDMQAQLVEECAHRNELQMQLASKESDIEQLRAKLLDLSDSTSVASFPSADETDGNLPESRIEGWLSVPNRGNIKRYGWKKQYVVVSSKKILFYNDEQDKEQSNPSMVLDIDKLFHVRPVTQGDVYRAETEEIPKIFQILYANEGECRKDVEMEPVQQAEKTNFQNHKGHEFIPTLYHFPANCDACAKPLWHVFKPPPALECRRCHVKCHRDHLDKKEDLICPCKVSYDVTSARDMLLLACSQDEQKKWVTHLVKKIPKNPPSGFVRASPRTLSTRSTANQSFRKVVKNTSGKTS
# ITK = target: T6, ITK (Homo sapiens, UniProt Q08881); assay: as above; assay type: biochemical; conditions: 1 µmol/L of BTK inhibitor
# T6 construct: purchased Carna Biosciences
# T6 sequence (Q08881 1-620): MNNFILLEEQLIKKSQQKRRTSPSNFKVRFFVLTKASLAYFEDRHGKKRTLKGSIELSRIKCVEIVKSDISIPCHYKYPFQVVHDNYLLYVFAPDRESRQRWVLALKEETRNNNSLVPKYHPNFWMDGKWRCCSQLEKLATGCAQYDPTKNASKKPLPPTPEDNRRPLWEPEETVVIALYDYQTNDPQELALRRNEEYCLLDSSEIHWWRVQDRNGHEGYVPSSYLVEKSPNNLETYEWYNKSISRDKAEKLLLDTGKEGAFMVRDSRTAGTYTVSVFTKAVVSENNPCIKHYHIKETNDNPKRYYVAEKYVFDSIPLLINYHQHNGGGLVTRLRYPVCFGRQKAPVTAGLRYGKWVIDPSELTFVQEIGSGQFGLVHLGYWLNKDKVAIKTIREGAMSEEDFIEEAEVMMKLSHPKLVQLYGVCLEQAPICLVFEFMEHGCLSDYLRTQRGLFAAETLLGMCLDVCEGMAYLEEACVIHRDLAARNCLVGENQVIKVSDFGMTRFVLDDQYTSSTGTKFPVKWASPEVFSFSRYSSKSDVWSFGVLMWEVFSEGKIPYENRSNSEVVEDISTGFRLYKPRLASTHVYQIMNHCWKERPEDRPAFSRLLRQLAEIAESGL
# TRKC = target: T7, TRKC (Homo sapiens, UniProt Q16288); assay: as above; assay type: biochemical; conditions: 1 µmol/L of BTK inhibitor
# T7 construct: purchased Carna Biosciences
# T7 sequence (Q16288 32-839): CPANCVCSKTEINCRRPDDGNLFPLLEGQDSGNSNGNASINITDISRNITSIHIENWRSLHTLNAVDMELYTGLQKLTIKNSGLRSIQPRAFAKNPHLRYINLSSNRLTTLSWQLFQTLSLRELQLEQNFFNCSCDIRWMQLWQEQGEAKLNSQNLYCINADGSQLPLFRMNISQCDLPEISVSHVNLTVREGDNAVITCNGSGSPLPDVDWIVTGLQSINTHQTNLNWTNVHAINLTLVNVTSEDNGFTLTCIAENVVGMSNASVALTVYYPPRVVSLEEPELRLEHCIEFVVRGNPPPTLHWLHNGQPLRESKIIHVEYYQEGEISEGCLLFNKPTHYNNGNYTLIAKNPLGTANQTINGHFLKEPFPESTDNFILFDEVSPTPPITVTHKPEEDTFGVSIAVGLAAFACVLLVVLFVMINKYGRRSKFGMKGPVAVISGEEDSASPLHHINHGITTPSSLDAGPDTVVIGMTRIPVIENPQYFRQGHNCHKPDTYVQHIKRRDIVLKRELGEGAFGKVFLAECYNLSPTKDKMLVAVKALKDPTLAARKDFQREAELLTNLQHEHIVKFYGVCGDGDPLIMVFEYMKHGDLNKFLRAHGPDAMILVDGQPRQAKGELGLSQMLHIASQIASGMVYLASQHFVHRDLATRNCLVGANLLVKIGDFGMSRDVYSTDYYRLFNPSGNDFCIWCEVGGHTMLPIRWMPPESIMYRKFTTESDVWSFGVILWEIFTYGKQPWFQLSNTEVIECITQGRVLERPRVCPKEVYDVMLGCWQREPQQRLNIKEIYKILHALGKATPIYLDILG
# [1] = Homo sapiens, Rec1, read-out: IC50
Structure (SMILES),Percentage inhibition of kinase enzyme activity (AurA) [%],Percentage inhibition of kinase enzyme activity (CaMK1α) [%],Percentage inhibition of kinase enzyme activity (p70S6Kβ) [%],pIC50 (REC-1; [1]),"pIC50 (SU-DHL-6; Homo sapiens, read-out: IC50)",Percentage inhibition of kinase enzyme activity (PKD2) [%],Percentage inhibition of kinase enzyme activity (ROCK1) [%],Percentage inhibition of kinase enzyme activity (ITK) [%],Percentage inhibition of kinase enzyme activity (TRKC) [%],"pIC50 (REC-1; Homo sapiens, Rec1, 72 h)","pIC50 (SU-DHL-6; Homo sapiens, SU-DHL-6, 72 h)",pIC50 (REC-1),pIC50 (SU-DHL-6),IC50 fold change of nemtabrutinib with the inhibitor (REC-1),IC50 fold change of nemtabrutinib with the inhibitor (SU-DHL-6)
CC#CC(=O)N1CCC[C@H]1c1nc(-c2ccc(C(=O)Nc3ccccn3)cc2)c2c(N)nccn12 [acalabrutinib],2.34,-4.29,-14.17,7.68,8.51,-9.88,-7.78,0.87,11.12,–,–,–,–,–,–
C=CC(=O)N1CCC([C@@H]2CCNc3c(C(N)=O)c(-c4ccc(Oc5ccccc5)cc4)nn32)CC1 [zanubrutinib],–,–,–,–,–,–,–,-2.98,–,8.51,8.42,–,–,–,–
O=C(c1ccc(Oc2ccccc2)cc1Cl)c1c[nH]c2ncnc(N[C@@H]3CC[C@@H](CO)OC3)c12 [nemtabrutinib],77.82,11.41,4.30,–,–,7.65,16.05,8.66,99.56,5.70,6.22,5.69,6.24,–,–
COc1ccc(F)cc1C(=O)NCc1ccc(-c2nn([C@@H](C)C(F)(F)F)c(N)c2C(N)=O)cc1 [pirtobrutinib],27.17,-9.87,10.01,7.42,7.89,-6.50,-4.30,0.65,5.23,–,–,–,–,53,43
C=CC(=O)N1CCC[C@@H](n2nc(-c3ccc(Oc4ccccc4)cc3)c3c(N)ncnc32)C1 [ibrutinib],29.84,13.82,0.87,9.29,7.92,-3.20,-5.42,93.10,23.90,–,–,–,–,–,–
